Like-named read-outs stand apart in the source and are kept apart here.
What was measured:
HeLa cells [1] = experiment: Drug combination assay with doxorubicin (MTT, CompuSyn); format: cell-based, human; set-up: key to CI (combination index): CI <1 synergy, ~1 additivity, >1 antagonism; settings: for Interaction: interaction type with doxorubicin; for CI (combination index): with doxorubicin, 72 h, average over drug ratios at IC50
Method: The HeLa cell line was used to perform this assay. Doxorubicin (2 mg/mL, Teva Pharmaceuticals, Budapest, Hungary) was serially diluted in the horizontal direction, starting with 8.6 µM. The resistance modifier was subsequently diluted in the vertical direction, and the starting concentration was determined based on the IC50. The dilutions of doxorubicin were made in a horizontal direction in 100 µL, and the dilutions of the resistance modifiers occurred vertically in the microtiter plate in a 50 µL volume. The compounds and doxorubicin were diluted separately. […] Then, diluted compounds with a volume of 50 μL were added to each well to reach a final volume of 200 μL. The plates were incubated for 72 h at 37 °C in a CO2 incubator, and at the end of the incubation period, the cell growth was determined by the MTT staining method, as described earlier. Drug interactions were evaluated using CompuSyn software. Each dose-response curve (for individual agents as well as combinations) was fit to a linear model using the median effect equation in order to obtain the median effect value (corresponding to the IC50) and slope (m). The goodness-of-fit was assessed using the linear correlation coefficient, r, and only data from analysis with r > 0.90 are presented. The extent of the interaction between drugs was expressed using the combination index in which a CI value close to 1 indicates additivity, while CI < 1 is defined as synergy and CI > 1 as antagonism.

[2] = system: COLO 320/MDR-LRP multidrug resistant colonic adenocarcinoma cells expressing P-gp; experiment: Antiproliferative MTT assay, COLO 320; settings: for IC50: read-out: IC50 (µM) ± SD COLO 320; for SI MRC-5/COLO 320: selectivity index: IC50 in non-tumour cells / IC50 in cancer cells
Method: (§1) The human colon adenocarcinoma cells (COLO 205 sensitive and the resistant COLO 320/MDR-LRP expressing P-gp), namely, ATCC-CCL-220.1 (COLO 320) and CCL-222 (COLO 205) were cultured in RPMI 1640 medium supplemented with 10% heat-inactivated fetal bovine serum, 2 mM L-glutamine, 1 mM Na pyruvate, and 100 mM HEPES. HeLa (ATCC® CCL-2™) human cervix carcinoma cells, and MRC-5 (ATCC® CCL-171) human embryonal lung fibroblast cells were cultured in Eagle’s minimal essential medium (EMEM, containing 4.5 g/L glucose) supplemented with a non-essential amino acid mixture, a selection of vitamins, and 10% heat-inactivated fetal bovine serum. The cell lines were detached with 0.25% trypsin and 0.02% EDTA for 5 min at 37 °C.
(§2) In the study, human colonic adenocarcinoma cell lines (doxorubicin-sensitive COLO 205 and multidrug resistant COLO 320 colonic adenocarcinoma cells), HeLa human cervix carcinoma cells and the MRC-5 non-cancerous human embryonic lung fibroblast cell line were used to determine the effect of the compounds on cell growth. The effects of increasing concentrations of compounds on cell growth were tested in 96-well flat-bottomed microtiter plates. […] The compounds were diluted in a volume of 100 μL of the medium. The adherent cells were cultured in 96-well flat-bottomed microtiter plates using EMEM supplemented with 10% heat-inactivated fetal bovine serum. The density of the cells was adjusted to 6 × 10^3 cells in 100 µL per well, the cells were seeded prior to the assay for 24 h at 37 °C, with 5% CO2, and then the medium was removed from the plates, and fresh medium (100 µL per well) was added to the cells. The effects of increasing concentrations of compounds on cell proliferation were tested in 96-well flat-bottomed microtiter plates. The compounds were diluted in the appropriate medium; the dilutions of compounds were performed in separate plates and then added to the cells. The starting concentration of the compounds was 100 µM, and two-fold serial dilution was performed (concentration range: 100–0.19 µM). The culture plates were incubated at 37 °C for 72 h; at the end of the incubation period, 20 µL of MTT (thiazolyl blue tetrazolium bromide, Sigma) solution (from a stock solution of 5 mg/mL) was added to each well. After incubation at 37 °C for 4 h, 100 µL of sodium dodecyl sulfate (SDS) (Sigma) solution (10% in 0.01 M HCI) was added to each well, and the plates were further incubated at 37 °C overnight. Cell growth was determined by measuring the optical density (OD) at 540/630 nm, with a Multiscan EX ELISA reader (Thermo Labsystems, Cheshire, WA, USA). Inhibition of cell growth (expressed as IC50: inhibitory concentration that reduces the growth of the cells exposed to the tested compounds by 50%) was determined from the sigmoid curve where 100 − ((ODsample − ODmedium control)/(ODcell control − ODmedium control)) × 100 was plotted against the logarithm of the compound concentrations. Curves were fitted by Prism5 software (GraphPad Software Inc., San Diego, CA, USA) from four parallel experiments for each cell line. Results are expressed in terms of IC50, defined as the inhibitory dose that reduces the proliferation of the cells exposed to the tested compounds by 50% [20].

[3] = system: HeLa human cervix carcinoma cells; experiment: Antiproliferative MTT assay, HeLa; format: cell-based; settings: for IC50: MTT, 72 h, four parallel measurements, read-out: IC50 (µM) ± SD HeLa; for SI MRC-5/HeLa: selectivity index: IC50 in non-tumour cells / IC50 in cancer cells
Method: as §1, §2

[4] = system: MRC-5 human embryonal lung fibroblast cells; experiment: Antiproliferative MTT assay, MRC-5 non-tumor cells; format: cell-based; settings: four parallel measurements, read-out: IC50 (µM) ± SD MRC-5
Method: as §1, §2

[5] = system: COLO 205 doxorubicin-sensitive colonic adenocarcinoma cells; experiment: Antiproliferative MTT assay, COLO 205; format: cell-based, human; settings: for IC50: MTT, 72 h, four parallel measurements, read-out: IC50 (µM) ± SD COLO 205; for SI MRC-5/COLO 205: selectivity index: IC50 in non-tumour cells / IC50 in cancer cells
Method: as §1, §2

[6] = system: superoxide anion generation; set-up: method as in PMID 27940118; settings: anti-inflammatory activity ref 16; cited from earlier work
HeLa cells [7] = system: HeLa cells; set-up: method as in PMID 33064469; settings: HeLa ref 15; read-out: IC50 antiproliferative activity against HeLa cells; cited from earlier work
human neutrophils = system: human neutrophils; set-up: method as in PMID 27940118; settings: fMLP/CB activation ref 16, read-out: IC50 elastase release; cited from earlier work
[8] = MTT, 72 h, four parallel measurements

Row | Compound | Interaction (HeLa cells [1]) | CI (combination index) (HeLa cells [1]) | IC50 ([2]; Homo sapiens, COLO 320, 72 h) [µM] | SI MRC-5/COLO 320 [2] | IC50 ([3]; Homo sapiens, HeLa) [µM] | SI MRC-5/HeLa [3] | IC50 ([4]; Homo sapiens, MRC5, 72 h) [µM] | IC50 ([5]; Homo sapiens, COLO 205, 72 h) [µM] | SI MRC-5/COLO 205 [5] | IC50 [2, 8] [µM] | IC50 [3] [µM] | IC50 ([4]; 72 h) [µM] | IC50 [5] [µM] | IC50 [6] [µM] | IC50 (HeLa cells [7]) [µM] | IC50 (human neutrophils) [µM]
1 | C=Cc1c(C)cc(O)c2c1CCc1c-2cc(-c2c(C)c(C=C)c3c(c2O)-c2ccc(O)c(C)c2CC3)c(O)c1C [Compound 12, Ensifolin L] | strong synergism (0.1 < CI < 0.3: strong synergism) | 0.120 | 37.4 ± 2.13 | 1.35 | 30.22 ± 0.21 | 1.67 | 50.4 ± 1.3 | 26.9 ± 1.19 | 1.87 |  |  |  |  |  |  | 
2 | C=Cc1cc(C)cc2c1-c1ccc(O)c(C)c1CC2 [Compound 14, 2-hydroxy-1,7-dimethyl-5-vinyl-9,10-dihydrophenanthrene] | synergism (0.3 < CI < 0.7: synergism) | 0.579 | 52.4 ± 0.77 | 1.16 | 58.1 ± 1.2 | 1.05 | 60.89 ± 0.25 | 32.9 ± 0.59 | 1.85 |  |  |  |  |  |  | 
3 | C#Cc1c(C)c(O)cc2c1CCc1c-2ccc(O)c1C [Compound 16, juncatrin B] | synergism (0.3 < CI < 0.7: synergism) | 0.682 |  | 0.80 |  | 3.91 |  |  | 0.76 | 32.5 ± 0.75 | 6.65 ± 0.1 | 26 ± 0.85 | 34.4 ± 0.57 |  |  | 
4 | O=Cc1ccc(O)cc1 [Compound 18, 4-hydroxybenzaldehyde] |  |  | > 100 |  | > 100 |  | > 100 | > 100 |  |  |  |  |  |  |  | 
5 | O=c1cc(-c2ccc(O)c(O)c2)oc2cc(O)cc(O)c12 [Compound 19, luteolin] |  |  | > 100 |  | > 100 |  | > 100 | > 100 |  |  |  |  |  |  |  | 
6 | N.N.[Cl][Pt][Cl] [cisplatin, reference compound] |  |  |  |  |  |  |  |  |  |  | 3.62 ± 0.16 | 2.36 ± 0.33 | 41.7 ± 1.62 |  |  | 
7 | COc1cccc2c1C(=O)c1c(O)c3c(c(O)c1C2=O)C[C@@](O)(C(=O)CO)C[C@@H]3O[C@H]1C[C@H](N)[C@H](O)[C@H](C)O1 [doxorubicin] |  |  | 0.22 ± 0.004 |  | 0.04 ± 0.004 |  | 0.53 ± 0.06 | 1.36 ± 0.36 |  |  |  |  |  |  |  | 
8 | C=Cc1c(C)c(O)cc2c1-c1ccc(O)c(C)c1CC2 [juncusol, reference compound] |  |  |  |  |  |  |  |  |  |  |  |  |  | 3.1 |  | 
9 | juncuenin B [Compound 15] | slight synergism (0.7 < CI < 0.9: moderate to slight synergism) | 0.864 |  | 1.17 |  | 5.37 |  |  | 0.97 | 30.5 ± 0.93 | 6.67 ± 0.03 | 35.9 ± 1.23 | 37.1 ± 0.57 | 4.9 | 2.9 | 5.5
10 | sylvaticin A [Compound 17] | strong synergism (0.1 < CI < 0.3: strong synergism) | 0.279 |  | >1.73 |  | >9.47 |  |  | >1.76 | 57.7 ± 0.92 | 10.56 ± 0.09 | > 100 | 56.7 ± 0.75 |  |  | 

Reference: PMC8949129, “Unique Phenanthrenes from Juncus ensifolius and Their Antiproliferative and Synergistic Effects with the Conventional Anticancer Agent Doxorubicin against Human Cancer Cell Lines” (Pharmaceutics, 2022)
